In patent US7144858B2, “Antibacterial compounds and methods for treating Gram positive bacterial infections” (The Trustees of the University of Pennsylvania, priority 2002, dated 2006):

Tests used:
[1] = Binding to Park's nucleotide, Kd by 1H NMR titration; design: species or system Bacillus subtilis; conditions: for Kd: 20% DMSO, NMR titration
Experimental: Fibril formation is observed in vitro and serves as a convenient predictor of PG complexation in vitro. […] Therefore, DMSO allows for the determination of binding affinity (Kd) values and characterization of the binding interface by Nuclear Magnetic Resonance spectroscopy (NMR).
(§1) Mass spectra were recorded on commercially available spectrometers and HPLC was performed on a commercially available columns. Both the NMR spectroscopy and transmission electron micrographs were performed in a manner known to one of ordinary skill in the art. Fmoc-amino acids and deuterated solvents were purchased from a commercial supplier. Measurement of dissociation constants was performed by NMR.
(§2) UDP-MurNAc-L-Ala-γ-D-Glu-L-Dap-D-Ala-D-Ala pentapeptide (Park's nucleotide) and UDP-MurNAc-L-Ala-γ-D-Glu-L-Dap tripeptide were isolated from Bacillus subtilis by methods known to those of ordinary skill in the art.
(§3) The resultant antibacterial compound was then titrated against a solution of the cytoplasmic PG biosynthetic precursor of lipid II, Park's nucleotide. Isothermal titration calorimetry experiments were used to measure the interaction between the antibacterial compound and Park's nucleotide. The experiments were performed at 25° C. using a titration microcalorimeter equipped with a 250 μL injection syringe and a 400 rpm stirring rate. Both the, antibacterial compound and Park's nucleotide were dissolved in water and vacuum degassed before use. Park's nucleotide (20×10 μL injection of a 5.4 mM solution) was injected into an ITC cell containing ca. 1.3 mL of the antibacterial compound (1 mM). Control experiments were performed under identical conditions by injection of the compound into water alone, Park's nucleotide into water, and the reverse experiment of titrating water into solution of the antibacterial compound or Park's nucleotide. […] The complex pattern of heat released during the titration is indicative of ligand-induced aggregation. Insoluble fibrils were produced from soluble fibril preparations by increasing the ionic strength to greater than or equal to 100 mM.

[2] = Binding to UDP-MurNAc tripeptide lipid II precursor, NMR titration; design: species or system Bacillus subtilis; conditions: for Complexation/binding with UDP-MurNAc-L-Ala-γ-D-Glu-L-Dap tripeptide: NMR analysis / titration
Experimental: as §1, §2, §3
The resultant antibacterial compound still maintains the side-chain amine cationic charge. […] These values indicate that there was a strong affinity of the antibacterial compound to the two lipid II precursors.

[3] = Isothermal titration calorimetry with Park's nucleotide; assay type: binding, Bacillus subtilis; conditions: 25° C., water, Park's nucleotide 5.4 mM injected into 1 mM compound
Experimental: as §3

[4] = tested on: Gram positive bacteria; assay: Antibiotic activity; assay type: cell-based

| Substance | Kd [1] [µM] | Complexation with Park's nucleotide by NMR ([1]; NMR analysis) | Complexation/binding with UDP-MurNAc-L-Ala-γ-D-Glu-L-Dap tripeptide [2] | Ligand-induced aggregation during ITC titration [3] | Decrease in binding affinity with Park's nucleotide ([1]; titration experiments) [fold] | Antibiotic activity [4] | Kd ([2]; titration as in example 1, read-out: Kd value with UDP-MurNAc-L-Ala-γ-D-Glu-L-Dap tripeptide) [µM] |
| --- | --- | --- | --- | --- | --- | --- | --- |
| cyclic (lactone) antibacterial compound containing octapeptide -Hpg-Orn-Thr-Hpg-Hpg-Thr-Phe-Orn-, diguanidylated at the ornithine residues [Example 1] | 170 | clear evidence of complexation and formation of a large, soluble aggregate | clear evidence of complexation and formation of a large, soluble aggregate | ligand-induced aggregation occurred | – | – | – |
| cyclic (lactone) compound containing octapeptide -Hpg-Orn-Thr-Hpg-Hpg-Thr-Phe-Orn-, diacetylated at the ornithine residues; lacks the side-chain cationic charge [Comparative Example A, reference compound] | 1340 ± 320 | – | failed to show detectable binding | – | ~10 | markedly reduced | – |
| cyclic (lactone) compound containing octapeptide -Hpg-Orn-Thr-Hpg-Hpg-Thr-Phe-Orn-, ornithine residues modified into secondary amines with isovaleraldehyde [Example 2] | 130 ± 20 | – | – | – | – | – | 1280 ± 140 |
